The text below walks through data of patent publication US20250019385A1, “SPIROCYCLIC ANNULATED 2-AMINO-3-CYANO THIOPHENES AND DERIVATIVES FOR THE TREATMENT OF CANCER” (Boehringer Ingelheim International GmbH, priority 2023, published 2025).

Structures are written as SMILES. Read-outs that look alike come from different tables or passages of the source.

The subject of one data set is NCI-H358 cells. The experiment in a line: NCI-H358 CTG proliferation assay (120 h) (NSCLC, G12C). The data set is classed as cell-based. How it is done: (§1) NCI-H358 cells (ATCC No. CRL-5807) are dispensed into black 384-well plates, flat and clear bottom (Greiner, PNr. 781091) at a density of 200 cells per well in 60 μl RPMI-1640 ATCC-Formulation (Gibco #A10491)+10% FCS (fetal calf serum). Cells are incubated overnight at 37° C. in a humidified tissue culture incubator at 5% CO2. Compounds (10 mM stock in DMSO) are added at logarithmic dose series using the ECHO acoustic liquid handler system (Beckman Coulter), normalizing for added DMSO and including DMSO controls. All compound treatments are performed in technical duplicates. For the TO time point measurement, untreated cells are analyzed at the time of compound addition. Plates are incubated for 120 h, and cell viability is measured using CellTiter-Glo luminescent cell viability reagent (Promega product code G7570). Viability (stated as percent of control) is defined as relative luminescence units RLU of each well divided by the RLU of cells in DMSO controls. IC50 values are determined from viability measurements by non-linear regression using a four-parameter model.
(§2) IC50 values of representative compounds according to the invention measured with these assays in the indicated cell lines are presented in Table 46.

The subject of another data set is SK-CO-1 cells. The experiment in a line: SK-CO-1 CTG proliferation assay (120 h) (CRC, G12V). The data set is classed as cell-based. As to the method:
as §1, with “SK—CO-1” for “NCI-H358”, “HTB-39)” for “No. CRL-5807)”, “500” for “200”, “EMEM (Sigma M5650)+10%” for “RPMI-1640 ATCC-Formulation (Gibco #A10491)+10%”, “serum, HyClone, SH30084.03).” for “serum).”
as §2

For another data set, the system named is NCI-H727 cells. The experiment in a line: NCI-H727 CTG proliferation assay (120 h) (lung cancer, G12V). Conditions: Homo sapiens. The data set is classed as cell-based. How it is done: as §1, with “NCI-H727” for “NCI-H358”, “CRL-5815)” for “CRL-5807)”, “500” for “200”, “RPMI” for “RPMI-1640”, “(PAN P04-18047)+10%” for “(Gibco #A10491)+10%”, “serum, HyClone, SH30084.03).” for “serum).”
as §2

In another data set the test system is LOVO cells. The experiment in a line: LOVO CTG proliferation assay (120 h) (CRC, G13D). In kind it is cell-based. How it is done:
as §1, with “LOVO” for “NCI-H358”, “CCL-229)” for “CRL-5807)”, “1000” for “200”, “DMEM (Sigma D6429)+10%” for “RPMI-1640 ATCC-Formulation (Gibco #A10491)+10%”, “serum, HyClone, SH30084.03).” for “serum).”
as §2

A short description of data set [1]: Metabolic (microsomal) stability assay, human liver microsomes (HLM). In kind it is in vitro ADME. Conditions: 1 μM test compound, predicted clearance as percent of liver blood flow. As to the method: The metabolic degradation of the test compound is assayed at 37° C. with pooled liver microsomes (mouse (MLM), rat (RLM) or human (HLM)). The final incubation volume of 48 μL per time point contains TRIS buffer (pH 7.5; 0.1 M), magnesium chloride (6.5 mM), microsomal protein (0.5 mg/mL for mouse/rat, 1 mg/mL for human specimens) and the test compound at a final concentration of 1 μM. Following a short preincubation period at 37° C., the reactions are initiated by addition of 12 μL beta-nicotinamide adenine dinucleotide phosphate, reduced form (NADPH, 10 mM) and terminated by transferring an aliquot into solvent after different time points (0, 5, 15, 30, 60 min). Additionally, the NADPH-independent degradation is monitored in incubations without NADPH, terminated at the last time point by addition of acetonitrile. The quenched incubations are pelleted by centrifugation (4,000 rpm, 15 min). An aliquot of the supernatant is assayed by LC-MS/MS to quantify the concentration of parent compound in the individual samples.
In vitro intrinsic clearance (CLint,in vitro) is calculated from the time course of the disappearance of the test drug during the microsomal incubation. Each plot is fitted to the first-order elimination rate constant as C(t)=C0*exp(−ke*t), where C(t) and C0 are the concentration of unchanged test drug at incubation time t and that at preincubation and ke is the disappearance rate constant of the unchanged drug. Subsequently, CLint, in vitro (μL min^−1·amount protein) values are converted to predicted CLint,in vivo (mL min^−1·kg^−1) from incubation parameters according to the equation CLint, in vivo=CLint, in vitro×(incubation volume (mL)/amount protein (mg))×(amount protein (mg)/g liver tissue)×(liver weight/body wt.).
For better across species comparison the predicted clearance is expressed as percent of the liver blood flow [% QH] (mL min^−1·kg^−1) in the individual species. In general, high stability (corresponding to low % QH) of the compounds across species is desired.

For the molecule `COCCn1c(=O)n([C@@H]2CCOC2)c2nc(-c3onc4c3CCC[C@@]43CCCc4sc(N)c(C#N)c43)nc(O[C@@H](C)[C@@H]3CCCN3C)c21` [I-1], the IC50 came to 9 nM in the data set with NCI-H358 cells (Homo sapiens), 8 nM in the data set on SK-CO-1 cells (Homo sapiens), 10 nM in the data set on NCI-H727 cells and 5 nM with LOVO cells (Homo sapiens). Besides, the “HLM QH” value in data set [1] is reported as 65%.
As for `CO[C@H]1C[C@@H]([C@H](C)Oc2nc(-c3onc4c3CCC[C@@]43CCCc4sc(N)c(C#N)c43)nc3c2n(C)c(=O)n3[C@@H]2CCOC2)N(C)C1` [I-2], the IC50 is 43 nM in the data set with NCI-H358 cells (Homo sapiens), 43 nM in the data set with SK-CO-1 cells (Homo sapiens), 14 nM with NCI-H727 cells and 3 nM with LOVO cells (Homo sapiens). Moreover, the “HLM QH” value in data set [1] is reported as 73%.
In the case of `CO[C@@H]1C[C@@H]([C@H](C)Oc2nc(-c3onc4c3CCC[C@@]43CCCc4sc(N)c(C#N)c43)nc3c2n(C)c(=O)n3[C@@H]2CCOC2)N(C)C1` [I-3], the IC50 was found to be 4 nM in the data set on NCI-H358 cells (Homo sapiens), 4 nM in the data set with SK-CO-1 cells (Homo sapiens), 5 nM with NCI-H727 cells and 15 nM in the data set on LOVO cells (Homo sapiens). Moreover, the “HLM QH” value in data set [1] is given as 42%.
For `C[C@H](Oc1nc(-c2onc3c2CCC[C@@]32CCCc3sc(N)c(C#N)c32)nc2c1n(C)c(=O)n2[C@@H]1CCOC1)[C@@H]1[C@H](F)CCN1C` [I-4], the IC50 came to 107 nM with NCI-H358 cells (Homo sapiens), 77 nM in the data set on SK-CO-1 cells (Homo sapiens), 33 nM with NCI-H727 cells and 181 nM in the data set with LOVO cells (Homo sapiens). The “HLM QH” value in data set [1] is 49%.
On the same counts, the results for `C[C@H](Oc1nc(-c2onc3c2CCC[C@@]32CCCc3sc(N)c(C#N)c32)nc2c1n(C)c(=O)n2[C@@H]1CCOC1)[C@@H]1[C@@H](F)CCN1C` [I-5] are 54 nM, 47 nM, 18 nM, 29 nM and 65%.
As to `CO[C@H]1CCN(C)[C@@H]1[C@H](C)Oc1nc(-c2onc3c2CCC[C@@]32CCCc3sc(N)c(C#N)c32)nc2c1n(C)c(=O)n2[C@@H]1CCCOC1` [I-6], the IC50 with NCI-H358 cells (Homo sapiens) came out at 4 nM; in the data set on SK-CO-1 cells (Homo sapiens), 7 nM; in the data set on NCI-H727 cells it was 3 nM; in the data set with LOVO cells (Homo sapiens) it was 3 nM. For the same molecule, in data set [1], the “HLM QH” value is on record as 73%.
Consider `C[C@H](Oc1nc(-c2onc3c2CCC[C@@]32CCCc3sc(N)c(C#N)c32)nc2c1n(C)c(=O)n2[C@H]1CCCOC1)[C@@H]1CCCN1C` [I-11], for which the IC50 in the data set with NCI-H358 cells (Homo sapiens) was found to be 387 nM; in the data set with SK-CO-1 cells (Homo sapiens), 445 nM; in the data set with NCI-H727 cells, 497 nM; with LOVO cells (Homo sapiens) it was 541 nM.
`C[C@@H]1COC[C@H](n2c(=O)n(C)c3c(O[C@@H](C)[C@@H]4CCCN4C)nc(-c4onc5c4CCC[C@@]54CCCc5sc(N)c(C#N)c54)nc32)C1` [I-44]: the IC50 was 7 nM with NCI-H358 cells (Homo sapiens), 5 nM in the data set with SK-CO-1 cells (Homo sapiens), 2 nM in the data set with NCI-H727 cells and 12 nM in the data set with LOVO cells (Homo sapiens).
Turning to `C[C@H](Oc1nc(-c2onc3c2CCC[C@@]32CCCc3sc(N)c(C#N)c32)nc2c1n(C)c(=O)n2[C@H]1CO[C@@H](C)C1)[C@@H]1CCCN1C` [I-47], the “HLM QH” value in data set [1] is <24%.
In the case of `C[C@H](Oc1nc(-c2onc3c2CCC[C@@]32CCCc3sc(N)c(C#N)c32)nc2c1n(C)c(=O)n2[C@H]1CO[C@@H](C)C1)[C@@H]1CC[C@H](C)N1C` [I-50], in data set [1], the “HLM QH” value is 35%.
Turning to `CO[C@H]1CCN(C)[C@@H]1[C@H](C)Oc1nc(-c2onc3c2CCC[C@@]32CCCc3sc(N)c(C#N)c32)nc2c1n(C)c(=O)n2[C@H]1COC[C@@H](C)C1` [I-51], the “HLM QH” value in data set [1] is given as 74%.
For `CO[C@@H]1C[C@@H]([C@H](C)Oc2nc(-c3onc4c3CCC[C@@]43CCCc4sc(N)c(C#N)c43)nc3c2n(C)c(=O)n3[C@H]2COC[C@@H](C)C2)N(C)C1` [I-52], the “HLM QH” value in data set [1] is recorded as 46%.
Consider `C[C@H](Oc1nc(-c2noc3c2CCC[C@@]32CCCc3sc(N)c(C#N)c32)nc2c1n(C)c(=O)n2[C@H]1CO[C@@H](C)C1)[C@@H]1CCCN1C` [II-5], for which the IC50 stood at 1 nM in the data set on NCI-H358 cells (Homo sapiens), 1 nM in the data set with SK-CO-1 cells (Homo sapiens) and 3 nM in the data set on LOVO cells (Homo sapiens). For the same molecule, the “HLM QH” value in data set [1] is reported as 36%.
For the molecule `C[C@H](Oc1nc(-c2noc3c2CCC[C@@]32CCCc3sc(N)c(C#N)c32)nc2c1CN(c1ncccn1)[C@]21CCOC1)[C@@H]1CCCN1C` [II-7a], the results for the IC50 in the data set with NCI-H358 cells (Homo sapiens), with SK-CO-1 cells (Homo sapiens) and with LOVO cells (Homo sapiens) were 18 nM, 32 nM and 11 nM, respectively. The “HLM QH” value in data set [1] was <24%.
For `C[C@H](Oc1nc(-c2noc3c2CCC[C@@]32CCCc3sc(N)c(C#N)c32)nc2c1CN(c1ncccn1)[C@@]21CCOC1)[C@@H]1CCCN1C` [II-7b], the IC50 in the data set on NCI-H358 cells (Homo sapiens) is 106 nM; with SK-CO-1 cells (Homo sapiens), 154 nM; in the data set with LOVO cells (Homo sapiens), 130 nM. Besides, the “HLM QH” value in data set [1] is <24%.
In the case of `C[C@H](Oc1nc(-c2noc3c2CCC[C@@]32CCCc3sc(N)c(C#N)c32)nc2c1CN(C1COC1)C[C@]21CCOC1)[C@@H]1CC[C@H](C)N1C` [II-17], the IC50 in the data set on NCI-H358 cells (Homo sapiens) was 5 nM; in the data set with SK-CO-1 cells (Homo sapiens), 5 nM; with NCI-H727 cells, 2 nM; with LOVO cells (Homo sapiens) it was 109 nM.
Take `C[C@H](Oc1nc(-c2noc3c2CCC[C@@]32CCCc3sc(N)c(C#N)c32)nc2c1CCC21CCOC1)[C@@H]1CCCN1C` (stereo partly drawn) [II-18]: the IC50 stood at 43 nM in the data set on NCI-H358 cells (Homo sapiens), 79 nM in the data set on SK-CO-1 cells (Homo sapiens) and 141 nM in the data set on LOVO cells (Homo sapiens). For the same molecule, the “HLM QH” value in data set [1] is on record as 36%.
Regarding `C[C@H](Oc1nc(-c2noc3c2CCC[C@@]32CCCc3sc(N)c(C#N)c32)nc2c1CC[C@]21CNCCO1)[C@@H]1C[C@@H](F)CN1C` [II-20], the IC50 with NCI-H358 cells stood at 59 nM; in the data set on SK-CO-1 cells, 148 nM; in the data set with LOVO cells it was 253 nM. Further, in data set [1], the “HLM QH” value is recorded as 36%.
